Series [1] is described as follows: Total antioxidant capacity of the compound at 200 uM relative to control. The series is classed as physicochemical.
Series [2] in a line: Total antioxidant capacity of the compound at 25 uM relative to control. The series is classed as physicochemical.
Series [3] relates to HCT-116. The series is described as follows: Cytotoxicity against human HCT116 cells up to 200 uM by MTT assay. The series is classed as cell-based. A general note: Formazan colour is commonly taken as a measure of viable cells.
The test system of series [4] is SW480. The series is described as follows: Cytotoxicity against human SW480 cells up to 200 uM by MTT assay. The series is classed as cell-based.
Series [5] is described as follows: Total antioxidant capacity of the compound at 50 uM relative to control. It is filed as physicochemical.
For series [6], the system named is Radical scavenging activity. The series is described as follows: Antioxidant activity assessed as DPPH free radical scavenging activity after 30 mins. The series is classed as functional. A general note: The DPPH test is a chemical assay of radical scavenging.
A short description of series [7]: Total antioxidant capacity of the compound at 100 uM relative to control. It is filed as physicochemical.
In series [8] the test system is Liver. The series is described as follows: Antioxidant activity against Fe2+/ascorbic acid-induced lipid peroxidation in mouse liver homogenates after 1.5 hrs. It is filed as functional, tissue-based.
For series [9], the system named is Liver. The series is described as follows: Antioxidant activity against Fe2+/ascorbic acid-induced lipid peroxidation in mouse liver homogenates assessed as total MDA level at 200 uM after 1.5 hrs. It is filed as functional, tissue-based.

As usually defined, the IC50 is the concentration that inhibits the measured activity by half.

SMILES strings stand for the structures. Active and inactive are the calls of the source. No cut-off for these calls is given here. Where only a bound is given, the exact number is not on record here.

In the case of `O=C(O)CCC(c1c(O)cc(/C=C/c2ccc(O)c(O)c2)oc1=O)c1c(O)cc(/C=C/c2ccc(O)c(O)c2)oc1=O`, the TAC in series [1] is given as 10.74 U; in series [2] it was 6.82 U; in [5], 8.41 U; in series [7], 9.74 U. In addition, the Activity result in series [3] and in series [4] was “Non-toxic” in each case. In [6], the IC50 came out at 88.7 µM.

Consider `O=C1O[C@H]([C@@H](O)CO)C(O)=C1O` [ASCORBIC ACID], for which the TAC in series [1] is 21.68 U; in [2], 17.33 U; in series [5] it was 17.42 U; in series [7] it was 18.97 U.

Take `COC(=O)CCC(c1c(O)cc(/C=C/c2ccc(O)c(O)c2)oc1=O)c1c(O)cc(/C=C/c2ccc(O)c(O)c2)oc1=O`: the TAC in series [1] stood at 11.06 U; in [2], 3 U; in series [5] it was 3.4 U; in series [7], 6.5 U. The Activity result in [3] and in [4] was “Non-toxic” in each case. In addition, the IC50 in [6] is 95.3 µM.

With `O=c1cc(O)cc(/C=C/c2ccc(O)c(O)c2)o1` [HISPIDIN], the TAC was determined as 10.25 U in series [1], 5.83 U in series [2], 9.27 U in series [5] and 10.03 U in series [7]. In addition, the Activity result in [3] and in series [4] was “Non-toxic” in each case. In addition, the results for the IC50 in [8] and in [6] were above 200 µM and 58.8 µM, respectively. Further, the result in series [9] was Active.

Turning to `CC(C)CC(c1c(O)cc(/C=C/c2ccc(O)c(O)c2)oc1=O)c1c(O)cc(/C=C/c2ccc(O)c(O)c2)oc1=O`, the TAC in [1] is reported as 10.81 U; in series [2] it was 3.61 U; in [5], 5.28 U; in series [7], 7.6 U. The Activity result in [3] and in series [4] was “Non-toxic” in each case. Besides, the IC50 in [8] is above 200 µM; in [6], 95.9 µM. For the same compound, the outcome in [9] was Active.

Consider `CC(C)C(c1c(O)cc(/C=C/c2ccc(O)c(O)c2)oc1=O)c1c(O)cc(/C=C/c2ccc(O)c(O)c2)oc1=O`, for which the TAC in [1] came to 5.39 U; in [2], 2.1 U; in series [5], 2.88 U; in [7], 4.8 U. In addition, the Activity entry in series [3] and in [4] was “Non-toxic” each time. The IC50 in series [8] and in [6] was above 200 µM in each case. Besides, the result in [9] was Active.

With `CC(c1c(O)cc(/C=C/c2ccc(O)c(O)c2)oc1=O)c1c(O)cc(/C=C/c2ccc(O)c(O)c2)oc1=O` [PINILLIDINE], the TAC came to 5.16 U in series [1], 2.02 U in [2], 2.67 U in [5] and 3.46 U in [7]. Moreover, the Activity entry in series [3] and in series [4] was “Non-toxic” each time. Moreover, the IC50 in series [8] and in series [6] was above 200 µM each time. For the same compound, the result in series [9] was Active.

As for `O=C1CC(c2c(O)cc(/C=C/c3ccc(O)c(O)c3)oc2=O)CN1` (stereo unspecified), the TAC in series [1] is 6.91 U; in series [2] it was 2.41 U; in series [5] it was 2.78 U; in series [7] it was 4.24 U. Besides, the Activity result in [3] and in [4] was “Non-toxic” in each case. In [6], the IC50 was above 200 µM.

The record behind these values is ChEMBL document CHEMBL2406917, “Phaeolschidins A-E, five hispidin derivatives with antioxidant activity from the fruiting body of Phaeolus schweinitzii collected in the Tibetan Plateau” (J Nat Prod, 2013).
